Measured values: US20250382305A1 (PTC THERAPEUTICS, INC., priority 2022, published 2025)

Assays:
[1] = test system: Total ATXN3 (tATXN3) protein; experiment: Endogenous Total ATXN3 (tATXN3) Protein Assay (MSD immunoassay of cell lysates); format: cell-based; conditions: average IC50, total ATXN3 protein in cell lysate after 48 h with compound (Table 1)
Procedure, shortened: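 Cells in DMEM/10% FBS were plated at 10,000 per well onto 7-point, 3.16-fold compound dilutions in duplicate for 48 h at 37° C, then lysed. Total ATXN3 in lysates was measured by MSD sandwich immunoassay: mouse anti-ATXN3 capture, rabbit anti-ATXN3 detection, SULFO-TAG anti-rabbit. Average IC50 was reported in star bins.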

ATXN3 pre-mRNA = experiment: RT-qPCR Assay to Quantify Exon 4 Skipping in ATXN3 pre-mRNA in Cells; format: cell-based; conditions: percent exon 4 skipping in ATXN3 pre-mRNA, RT-qPCR of cell lysates; average IC50
Procedure, shortened: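 Cells plated at 10,000/well onto a 7-point, 3.16-fold DMSO dilution series (duplicates), incubated 24 h at 37 °C, then lysed. Exon 4 skipping measured by one-step RT-qPCR (48 °C RT, 40 cycles); IC50 interpolated from dose-response fit of percent skipping.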

| Molecule | IC50 [1] [nM] | IC50 (ATXN3 pre-mRNA) [nM] |
| --- | --- | --- |
| 2-((1R,6S)-6-amino-2,2-difluorocyclohexyl)-N-(but-2-yn-1-yl)-5-chloro-3-iodothieno[3,2-b]pyridin-7-amine and 2-((1S,6R)-6-amino-2,2-difluorocyclohexyl)-N-(but-2-yn-1-yl)-5-chloro-3-iodothieno[3,2-b]pyridin-7-amine [Compound 383] | 30 to 300 | 30 to 300 |
| Cc1c([C@@]2(F)CCC[C@@H]2N)sc2c(NCc3ccco3)nc(Cl)nc12 [Compound 128, 6-((1R,2S)-2-amino-1-fluorocyclopentyl)-2-chloro-N-(furan-2-ylmethyl)-7-methylthieno[3,2-d]pyrimidin-4-amine] | > 1000 | > 1000 |
| N[C@@H]1CCCC[C@H]1c1sc2c(NCc3cccs3)cc(Cl)nc2c1Cl (single isomer, unassigned) [Compound 36, 2-((1R,2R)-2-aminocyclohexyl)-3,5-dichloro-N-(thiophen-2-ylmethyl)thieno[3,2-b]pyridin-7-amine or 2-((1S,2S)-2-aminocyclohexyl)-3,5-dichloro-N-(thiophen-2-ylmethyl)thieno[3,2-b]pyridine-7-amine] | > 1000 | > 1000 |
| C/C=C/CNc1cc(Cl)nc2c(Br)c([C@@H]3CC=CC[C@H]3N)sc12.C/C=C/CNc1cc(Cl)nc2c(Br)c([C@H]3CC=CC[C@@H]3N)sc12 (mixture of isomers) [Compound 300, 2-((1R,6R)-6-aminocyclohex-3-en-1-yl)-3-bromo-N-((E)-but-2-en-1-yl)-5-chlorothieno[3,2-b]pyridin-7-amine and 2-((1S,6S)-6-aminocyclohex-3-en-1-yl)-3-bromo-N-((E)-but-2-en-1-yl)-5-chlorothieno[3,2-b]pyridin-7-amine] | 30 to 300 | 30 to 300 |
| 6-((3R,4S)-3-aminotetrahydro-2H-pyran-4-yl)-7-bromo-2-chloro-N-(thiophen-2-ylmethyl)thieno[3,2-d]pyrimidin-4-amine and 6-((3S,4R)-3-aminotetrahydro-2H-pyran-4-yl)-7-bromo-2-chloro-N-(thiophen-2-ylmethyl)thieno[3,2-d]pyrimidin-4-amine [Compound 347] | 30 to 300 | 30 to 300 |
| CC#Cc1c(C2[C@@H](N)CCCC2(F)F)sc2c(NCc3cccs3)cc(Cl)nc12.CC#Cc1c(C2[C@H](N)CCCC2(F)F)sc2c(NCc3cccs3)cc(Cl)nc12 (mixture of isomers) [Compound 208, 2-((6R)-6-amino-2,2-difluorocyclohexyl)-5-chloro-3-(prop-1-yn-1-yl)-N-(thiophen-2-ylmethyl)thieno[3,2-b]pyridin-7-amine and 2-((6S)-6-amino-2,2-difluorocyclohexyl)-5-chloro-3-(prop-1-yn-1-yl)-N-(thiophen-2-ylmethyl)thieno[3,2-b]pyridin-7-amine] | ≤ 30 | ≤ 30 |
| CCc1c([C@@H]2CCCC[C@H]2N)sc2c(NCc3cccs3)cc(Cl)nc12 (single isomer, unassigned) [Compound 39, 2-((1R,2R)-2-aminocyclohexyl)-5-chloro-3-ethyl-N-(thiophen-2-ylmethyl)thieno[3,2-b]pyridin-7-amine or 2-((1S,2S)-2-aminocyclohexyl)-5-chloro-3-ethyl-N-(thiophen-2-ylmethyl)thieno[3,2-b]pyridine-7-amine] | > 1000 | > 1000 |
| N[C@H]1CCC[C@H]1c1cc2nc(Cl)cc(NCc3cccs3)c2s1 [Compound 111, 2-((1R,2S)-2-aminocyclopentyl)-5-chloro-N-(thiophen-2-ylmethyl)thieno[3,2-b]pyridin-7-amine] | > 1000 | 300 to 1000 |
| N[C@@H]1CCCO[C@H]1c1sc2c(NCc3ccccc3)cc(Cl)nc2c1Cl [Compound 156, 2-((2R,3R)-3-aminotetrahydro-2H-pyran-2-yl)-N-benzyl-3,5-dichlorothieno[3,2-b]pyridin-7-amine] | > 1000 | > 1000 |
| 2-((1R,2R)-2-aminocyclohexyl)-3,5-dichloro-1-(difluoromethyl)-N-(thiophen-2-ylmethyl)-1H-pyrrolo[3,2-b]pyridin-7-amine and 2-((1S,2S)-2-aminocyclohexyl)-3,5-dichloro-1-(difluoromethyl)-N-(thiophen-2-ylmethyl)-1H-pyrrolo[3,2-b]pyridin-7-amine [Compound 421] | ≤ 30 | ≤ 30 |
| N[C@@H]1CCCC[C@@H]1c1sc2c(NCc3cccs3)cc(Cl)nc2c1Br [Compound 52, 2-((1S,2R)-2-aminocyclohexyl)-3-bromo-5-chloro-N-(thiophen-2-ylmethyl)thieno[3,2-b]pyridin-7-amine] | > 1000 | > 1000 |
| N[C@@H]1CCC[C@H]1c1cc2nc(Cl)cc(NCc3cccs3)c2s1 [Compound 112, 2-((1R,2R)-2-aminocyclopentyl)-5-chloro-N-(thiophen-2-ylmethyl)thieno[3,2-b]pyridin-7-amine] | > 1000 | > 1000 |
| N[C@@H]1CCCO[C@H]1c1sc2c(NCc3ccccc3)cc(Cl)nc2c1Br [Compound 113, 2-((2R,3R)-3-aminotetrahydro-2H-pyran-2-yl)-N-benzyl-3-bromo-5-chlorothieno[3,2-b]pyridin-7-amine] | > 1000 | > 1000 |
| N[C@H]1CCCCC[C@@H]1c1sc2c(NCc3cccs3)cc(Cl)nc2c1-c1ccccc1 [Compound 141, 2-((1S,2S)-2-aminocycloheptyl)-5-chloro-3-phenyl-N-(thiophen-2-ylmethyl)thieno[3,2-b]pyridin-7-amine] | > 1000 | > 1000 |

Next, values leading:

| IC50 [1] [nM] | IC50 (ATXN3 pre-mRNA) [nM] | Molecule |
| --- | --- | --- |
| ≤ 30 | ≤ 30 | N[C@H]1CCCC[C@@H]1c1sc2c(NCc3ccccc3)nc(Cl)nc2c1Br [Compound 65, 6-[(1S,2S)-2-aminocyclohexyl]-N-benzyl-7-bromo-2-chloro-thieno[3,2-d]pyrimidin-4-amine] |
| 30 to 300 | 30 to 300 | N[C@@H]1CC=CC[C@H]1c1sc2c(NCc3ccco3)nc(Cl)nc2c1I [Compound 323, 6-((1R,6R)-6-aminocyclohex-3-en-1-yl)-2-chloro-N-(furan-2-ylmethyl)-7-iodothieno[3,2-d]pyrimidin-4-amine] |
| 30 to 300 | ≤ 30 | N[C@@H]1CCCO[C@H]1c1c(Cl)c2nc(Cl)nc(NCc3cccs3)c2n1C(F)F [Compound 423, 6-((2R,3R)-3-aminotetrahydro-2H-pyran-2-yl)-2,7-dichloro-5-(difluoromethyl)-N-(thiophen-2-ylmethyl)-5H-pyrrolo[3,2-d]pyrimidin-4-amine] |
| 30 to 300 | 30 to 300 | N[C@H]1COCC[C@@H]1c1sc2c(NCc3nccs3)cc(Cl)nc2c1Br [Compound 285, 2-((3R,4S)-3-aminotetrahydro-2H-pyran-4-yl)-3-bromo-5-chloro-N-(thiazol-2-ylmethyl)thieno[3,2-b]pyridin-7-amine] |
| 30 to 300 | 30 to 300 | Cc1c([C@H]2CC=CC[C@@H]2N)sc2c(NCc3ccco3)cc(C#N)nc12 [Compound 289, 2-((1S,6S)-6-aminocyclohex-3-en-1-yl)-7-((furan-2-ylmethyl)amino)-3-methylthieno[3,2-b]pyridine-5-carbonitrile] |
| 30 to 300 | 30 to 300 | N[C@H]1CCCO[C@@H]1c1c(I)c2nc(Cl)nc(NCc3cccs3)c2n1C(F)F [Compound 254, 6-((2S,3S)-3-aminotetrahydro-2H-pyran-2-yl)-2-chloro-5-(difluoromethyl)-7-iodo-N-(thiophen-2-ylmethyl)-5H-pyrrolo[3,2-d]pyrimidin-4-amine] |
| 300 to 1000 | 300 to 1000 | N[C@H]1CCCCC[C@@H]1c1cc2nc(Cl)cc(NCc3cccs3)c2s1 [Compound 90, 2-((1S,2S)-2-aminocycloheptyl)-5-chloro-N-(thiophen-2-ylmethyl)thieno[3,2-b]pyridin-7-amine] |
| 30 to 300 | 30 to 300 | Cc1c([C@H]2CC=C(C(=O)N(C)C)C[C@@H]2N)sc2c(NCc3cccs3)cc(Cl)nc12 [Compound 312, (4S,5S)-5-amino-4-(5-chloro-3-methyl-7-((thiophen-2-ylmethyl)amino)thieno[3,2-b]pyridin-2-yl)-N,N-dimethylcyclohex-1-ene-1-carboxamide] |
| 30 to 300 | 30 to 300 | 2-((1R,6R)-6-aminocyclohex-3-en-1-yl-2,2,3,4,5,5-d6)-N-benzyl-5-chloro-3-methylthieno[3,2-b]pyridin-7-amine and 2-((1S,6S)-6-aminocyclohex-3-en-1-yl-2,2,3,4,5,5-d6)-N-benzyl-5-chloro-3-methylthieno[3,2-b]pyridin-7-amine [Compound 278] |
| 300 to 1000 | 30 to 300 | N[C@@H]1CC=CC[C@H]1c1sc2c(NCc3ccco3)nc(Cl)nc2c1Br [Compound 396, 6-((1R,6R)-6-aminocyclohex-3-en-1-yl)-7-bromo-2-chloro-N-(furan-2-ylmethyl)thieno[3,2-d]pyrimidin-4-amine] |
| ≤ 30 | ≤ 30 | N[C@H]1CCCO[C@@H]1c1sc2c(NCc3ccccc3)cc(Cl)nc2c1Br [Compound 108, 2-((2S,3S)-3-aminotetrahydro-2H-pyran-2-yl)-N-benzyl-3-bromo-5-chlorothieno[3,2-b]pyridin-7-amine] |
| ≤ 30 | ≤ 30 | N[C@H]1CCCO[C@@H]1c1sc2c(NCc3ccco3)cc(Cl)nc2c1Cl [Compound 116, 2-((2S,3S)-3-aminotetrahydro-2H-pyran-2-yl)-3,5-dichloro-N-(furan-2-ylmethyl)thieno[3,2-b]pyridin-7-amine] |
| 30 to 300 | ≤ 30 | N[C@H]1CCCCC[C@@H]1c1sc2c(NCc3cccs3)cc(Cl)nc2c1I [Compound 163, 2-((1S,2S)-2-aminocycloheptyl)-5-chloro-3-iodo-N-(thiophen-2-ylmethyl)thieno[3,2-b]pyridin-7-amine] |
